Experimental data from BindingDB's records for doi:10.1021/jm5003167 (Bristol-Myers Squibb, 2014).

Columns and labels:
[1] = Antagonist activity at CCR1 receptor in human THP1 cells assessed as inhibition of MIP-1alpha induced chemotaxis after 60 mins
[2] = Antagonist activity at CCR1 receptor in human THP1 cells assessed as inhibition of MCP3-induced chemotaxis after 60 mins
[3] = Antagonist activity at CCR1 receptor in human THP1 cells assessed as inhibition of HCC1-induced chemotaxis after 60 mins
[4] = Antagonist activity at CCR1 receptor in human THP1 cells assessed as inhibition of LKN1-induced chemotaxis after 60 mins
[5] = Antagonist activity at CCR1 receptor in human THP1 cells assessed as inhibition of HCC4-induced chemotaxis after 60 mins
[6] = Antagonist activity at CCR1 receptor in human THP1 cells assessed as inhibition of MPIF1-induced chemotaxis after 60 mins
[7] = Antagonist activity at CCR1 receptor in human THP1 cells assessed as inhibition of RANTES-induced chemotaxis after 60 mins
[8] = Antagonist activity at CCR1 receptor in human THP1 cells assessed as inhibition of MIP-1alpha-induced chemotaxis after 60 mins

IC50 [1] [nM] | other results | Structure (SMILES)
3 |  | CC(C)[C@@H](NC(=O)NC1CCCC1)C(=O)N1CC[C@](O)(c2ccc(Cl)cc2)C(C)(C)C1
19 |  | CC(C)[C@@H](NC(=O)N[C@@H]1CC[C@@H](O)C1)C(=O)N1CC[C@](O)(c2ccc(Cl)cc2)C(C)(C)C1
10 |  | CC(C)[C@@H](NC(=O)N[C@H]1CC[C@H](O)C1)C(=O)N1CC[C@](O)(c2ccc(Cl)cc2)C(C)(C)C1
4 |  | CC(C)[C@@H](NC(=O)N[C@@H]1CC[C@H](O)C1)C(=O)N1CC[C@](O)(c2ccc(Cl)cc2)C(C)(C)C1
6 |  | CC(C)[C@@H](NC(=O)N[C@H]1CC[C@@H](O)C1)C(=O)N1CC[C@](O)(c2ccc(Cl)cc2)C(C)(C)C1
7 |  | CC(C)[C@@H](NC(=O)NC[C@H](C)O)C(=O)N1CC[C@](O)(c2ccc(Cl)cc2)C(C)(C)C1
6 |  | CC(C)[C@@H](NC(=O)NC[C@@H](C)O)C(=O)N1CC[C@](O)(c2ccc(Cl)cc2)C(C)(C)C1
6 | IC50 [2]: 9.3 nM; IC50 [3]: 7.5 nM; IC50 [4]: 16 nM; IC50 [5]: 3.2 nM; IC50 [6]: 14 nM; IC50 [7]: 3.3 nM; IC50 [8]: 5.5 nM | CC(C)[C@@H](NC(=O)NCC(C)(C)O)C(=O)N1CC[C@](O)(c2ccc(Cl)cc2)C(C)(C)C1
22 |  | CC(C)[C@@H](NC(=O)CCC(C)(C)O)C(=O)N1CC[C@](O)(c2ccc(Cl)cc2)C(C)(C)C1
6 |  | CC[C@@H](C)NC(=O)N[C@@H](C(=O)N1CC[C@](O)(c2ccc(Cl)cc2)C(C)(C)C1)C(C)C [US8633226, 897]
